This is an account of results in patent publication US11851446B2, “Probes for imaging Huntingtin protein” (CHDI Foundation, Inc., priority 2014, dated 2023).

The target in one test is T1, Q46 protein aggregates (Homo sapiens, UniProt P42858, INS38QQQQQQQQQQQQQQQQQQQQQQQQQ).
T1 construct: fused on or other part: GST at the N-terminus, cut off by thrombin before the test to start aggregation
The test can be described thus: Q46 Radioligand Binding Assay (RBA). Conditions: displacement of 10 nM [3H3]MK-3328 from 5 μM aggregated Q46 protein, 60 minutes at 37° C. The procedure:
Q46 Radioligand Binding Assay
For radioligand binding assays (RBA) GST-Q46 protein was generated based on a previous publication (Scherzinger et al. Cell, Vol. 90, 549-558, Aug. 8, 1997). For experiments 33 μM GST-Q46 was incubated with 150 μg/mL thrombin in assay buffer (150 mM NaCl, 50 mM Tris pH 8.0) and 2 mM CaCl2 for 16 hours at 37° C. Aggregated Q46 was pelleted by centrifugation for 5 minutes at 13,000 rpm in a bench top centrifuge and re-dissolved in the same volume of assay buffer. Test compounds were prepared by titration in DMSO at 11 concentrations from 33 μM to 1 nM. For the RBA, Q46 protein aggregates and test compounds were pre-incubated in assay buffer for 20 minutes at room temperature, in 140 μL/well in a 96-well plate (pp, round bottom). Then, ligand was added in 10 μL/well and incubated for 60 minutes at 37° C. Final assay concentrations were […] test compound, 5 μM Q46 protein (equivalent monomer concentration) and 10 nM ligand [^3H3]MK-3328 (Harrision et al., ACS Med. Chem. Lett., 2 (2011), pp 498-502). Samples were transferred onto GF/B filter plates and washed 2× with 200 μL PBS using a Filtermate Harvester. After drying filter plates for 1 hour at 37° C., the back of the plates was sealed with foil and 30 μl/well scintillation fluid (Packard MicroScint 40) was added, incubated for […] 15 minutes in the dark and counted in a TopCount reader. For analysis, replicate data from independent assay plates were normalized towards 0% and 100% inhibition using control wells of vehicle (0% inhibition) and 3 μM unlabelled MK-3328 (100% inhibition). IC50 values were determined with a sigmoidal inhibition model with four variables (top, bottom, slope, IC50) in a global fit using the normalized replicate data.

Test [1] relates to recombinant tau and amyloid β1-42 (Aβ1-42) aggregates. Conditions: higher affinity for the tau aggregates than Aβ1-42 aggregates; cited from earlier work.
Test [2] concerns NFT in sections of AD brain tissue. Conditions: in vitro autoradiography and fluorescent staining; cited from earlier work.

Structures are written as SMILES. Where only a bound is given, the exact number is not on record here.

T1 sequence (P42858 with tags, fused parts or gaps with the stated changes): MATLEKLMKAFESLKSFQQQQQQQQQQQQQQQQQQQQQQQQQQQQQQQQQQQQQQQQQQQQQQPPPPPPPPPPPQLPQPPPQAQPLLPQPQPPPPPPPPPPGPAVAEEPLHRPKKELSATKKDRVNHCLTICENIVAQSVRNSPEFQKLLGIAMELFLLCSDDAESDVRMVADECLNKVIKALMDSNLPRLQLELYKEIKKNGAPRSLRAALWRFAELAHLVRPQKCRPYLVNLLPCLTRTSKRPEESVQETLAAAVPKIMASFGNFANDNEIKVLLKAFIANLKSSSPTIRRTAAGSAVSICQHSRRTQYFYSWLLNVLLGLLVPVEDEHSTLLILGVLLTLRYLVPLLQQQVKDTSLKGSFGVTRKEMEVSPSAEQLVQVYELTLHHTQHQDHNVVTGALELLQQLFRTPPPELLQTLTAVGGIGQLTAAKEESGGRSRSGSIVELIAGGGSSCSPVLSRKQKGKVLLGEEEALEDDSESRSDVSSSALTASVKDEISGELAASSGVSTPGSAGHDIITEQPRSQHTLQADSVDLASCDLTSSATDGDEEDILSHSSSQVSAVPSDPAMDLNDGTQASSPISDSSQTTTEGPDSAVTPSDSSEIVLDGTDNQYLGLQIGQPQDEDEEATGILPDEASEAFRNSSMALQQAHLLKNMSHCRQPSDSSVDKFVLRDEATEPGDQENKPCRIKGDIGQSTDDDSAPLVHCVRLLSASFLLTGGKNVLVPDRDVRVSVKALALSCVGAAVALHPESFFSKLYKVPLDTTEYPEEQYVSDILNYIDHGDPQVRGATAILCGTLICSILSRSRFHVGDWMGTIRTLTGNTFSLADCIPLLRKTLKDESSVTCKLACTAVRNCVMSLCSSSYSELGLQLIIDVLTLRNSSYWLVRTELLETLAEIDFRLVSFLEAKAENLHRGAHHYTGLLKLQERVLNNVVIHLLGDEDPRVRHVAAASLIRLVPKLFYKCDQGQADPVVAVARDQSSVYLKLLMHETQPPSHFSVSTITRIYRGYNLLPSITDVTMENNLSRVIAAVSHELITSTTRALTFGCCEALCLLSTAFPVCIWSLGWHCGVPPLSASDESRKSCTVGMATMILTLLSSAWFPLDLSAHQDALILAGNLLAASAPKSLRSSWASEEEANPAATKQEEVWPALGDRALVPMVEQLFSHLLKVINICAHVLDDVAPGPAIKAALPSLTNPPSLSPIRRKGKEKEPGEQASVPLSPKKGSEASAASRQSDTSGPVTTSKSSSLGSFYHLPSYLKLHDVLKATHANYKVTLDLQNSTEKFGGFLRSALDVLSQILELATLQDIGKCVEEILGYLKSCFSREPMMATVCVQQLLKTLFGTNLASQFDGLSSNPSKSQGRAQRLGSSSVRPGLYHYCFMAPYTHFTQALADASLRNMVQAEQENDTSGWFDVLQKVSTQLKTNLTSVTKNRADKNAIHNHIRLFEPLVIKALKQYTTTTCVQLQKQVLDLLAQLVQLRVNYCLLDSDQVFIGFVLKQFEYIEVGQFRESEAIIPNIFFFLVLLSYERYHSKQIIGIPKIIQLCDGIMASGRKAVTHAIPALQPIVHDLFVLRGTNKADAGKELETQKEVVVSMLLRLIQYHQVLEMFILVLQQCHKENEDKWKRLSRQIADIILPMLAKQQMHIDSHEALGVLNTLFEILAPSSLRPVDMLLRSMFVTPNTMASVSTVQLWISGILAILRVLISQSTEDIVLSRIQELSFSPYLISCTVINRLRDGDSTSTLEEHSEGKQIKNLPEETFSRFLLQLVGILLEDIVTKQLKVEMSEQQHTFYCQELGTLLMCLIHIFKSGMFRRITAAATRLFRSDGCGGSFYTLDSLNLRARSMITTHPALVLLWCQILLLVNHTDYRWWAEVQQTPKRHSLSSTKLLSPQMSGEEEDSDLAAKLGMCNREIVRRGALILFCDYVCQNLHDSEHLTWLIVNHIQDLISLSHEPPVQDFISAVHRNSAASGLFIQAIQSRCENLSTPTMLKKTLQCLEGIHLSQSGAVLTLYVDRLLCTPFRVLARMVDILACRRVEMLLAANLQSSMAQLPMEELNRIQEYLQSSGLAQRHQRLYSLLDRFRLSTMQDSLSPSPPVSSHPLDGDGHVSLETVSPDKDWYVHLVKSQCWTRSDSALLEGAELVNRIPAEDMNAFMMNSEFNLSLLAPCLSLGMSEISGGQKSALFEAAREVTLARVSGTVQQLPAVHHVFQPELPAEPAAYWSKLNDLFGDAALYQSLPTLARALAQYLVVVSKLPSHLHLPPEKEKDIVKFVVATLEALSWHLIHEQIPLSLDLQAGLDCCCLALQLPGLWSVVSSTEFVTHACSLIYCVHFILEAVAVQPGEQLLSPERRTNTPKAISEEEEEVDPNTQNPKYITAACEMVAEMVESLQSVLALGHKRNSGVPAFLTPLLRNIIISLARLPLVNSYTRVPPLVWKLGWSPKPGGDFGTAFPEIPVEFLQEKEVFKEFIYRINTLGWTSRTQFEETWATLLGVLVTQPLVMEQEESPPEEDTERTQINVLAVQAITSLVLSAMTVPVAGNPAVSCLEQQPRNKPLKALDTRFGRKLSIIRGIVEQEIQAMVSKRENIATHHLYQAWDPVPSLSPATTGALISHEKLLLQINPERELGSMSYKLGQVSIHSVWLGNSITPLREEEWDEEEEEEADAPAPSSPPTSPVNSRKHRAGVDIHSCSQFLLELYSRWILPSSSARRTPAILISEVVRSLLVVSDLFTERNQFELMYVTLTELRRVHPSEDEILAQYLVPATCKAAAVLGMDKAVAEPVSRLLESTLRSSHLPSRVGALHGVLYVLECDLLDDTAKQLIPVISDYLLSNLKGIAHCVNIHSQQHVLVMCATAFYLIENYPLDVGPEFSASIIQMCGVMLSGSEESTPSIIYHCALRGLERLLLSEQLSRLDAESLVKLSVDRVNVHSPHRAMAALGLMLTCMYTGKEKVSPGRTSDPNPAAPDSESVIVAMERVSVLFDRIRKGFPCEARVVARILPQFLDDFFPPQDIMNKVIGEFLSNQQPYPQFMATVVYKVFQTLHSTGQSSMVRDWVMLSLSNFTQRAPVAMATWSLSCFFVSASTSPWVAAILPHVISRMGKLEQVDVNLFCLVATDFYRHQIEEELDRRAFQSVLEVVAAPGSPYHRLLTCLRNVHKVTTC

As to `COc1ccc2oc(-c3nc4cc(C#N)ccn4c3N(C)C)cc2c1` [3-(dimethylamino)-2-(5-methoxy-1-benzofuran-2-yl)imidazo[1,2-a]pyridine-7-carbonitrile], the IC50 – broadly, the concentration that inhibits the measured activity by half – on Q46 protein aggregates was in the range of 100 to 500 nM.

The compound `CNc1c(-c2cccc(-c3cnccn3)c2)nc2cc(C#N)ccn12` [3-(methylamino)-2-[3-(pyrazin-2-yl)phenyl]imidazo[1,2-a]pyridine-7-carbonitrile] gave an IC50 on Q46 protein aggregates of under 100 nM.

Compound `CNc1c(-c2cccc(OCc3cccnc3)c2)nc2cc(C#N)ccn12` [3-(methylamino)-2-[3-(pyridin-3-ylmethoxy)phenyl]imidazo[1,2-a]pyridine-7-carbonitrile] gave an IC50 on Q46 protein aggregates of under 100 nM.

As for `C#CCOc1ccc(-c2nc3cc(C#N)ccn3c2NC)cc1` [3-(methylamino)-2-[4-(prop-2-yn-1-yloxy)phenyl]imidazo[1,2-a]pyridine-7-carbonitrile], at Q46 protein aggregates, the IC50 was in the range of 100 to 500 nM.

`CNc1c(-c2ccc(-c3cnccn3)cc2)nc2cc(C#N)ccn12` [3-(methylamino)-2-[4-(pyrazin-2-yl)phenyl]imidazo[1,2-a]pyridine-7-carbonitrile] yielded an IC50 at Q46 protein aggregates of under 100 nM.

On Q46 protein aggregates, `CNc1c(-c2ccc(OCc3cccnc3)cc2)nc2cc(C#N)ccn12` [3-(methylamino)-2-[4-(pyridin-3-ylmethoxy)phenyl]imidazo[1,2-a]pyridine-7-carbonitrile] returned an IC50 of under 100 nM.

`CNc1c(-c2cc3cc(OCc4cccnc4)ccc3o2)nc2cc(C#N)ccn12` [3-(methylamino)-2-[5-(pyridin-3-ylmethoxy)-1-benzofuran-2-yl]imidazo[1,2-a]pyridine-7-carbonitrile] returned an IC50 on Q46 protein aggregates of under 100 nM.

The compound `CNc1c(-c2cccc(COCc3cccnc3)c2)nc2cc(C#N)ccn12` [3-(methylamino)-2-{3-[(pyridin-3-ylmethoxy)methyl]phenyl}imidazo[1,2-a]pyridine-7-carbonitrile] came in with an IC50 on Q46 protein aggregates of 100 to 500 nM.

`CNc1c(-c2ccc(COCc3cccnc3)cc2)nc2cc(C#N)ccn12` [3-(methylamino)-2-{4-[(pyridin-3-ylmethoxy)methyl]phenyl}imidazo[1,2-a]pyridine-7-carbonitrile] registered an IC50 at Q46 protein aggregates of 100 to 500 nM.

Turning to `COc1ccc2oc(-c3nc4cc(C#N)ccn4c3CN(C)C)cc2c1` [3-[(dimethylamino)methyl]-2-(5-methoxy-1-benzofuran-2-yl)imidazo[1,2-a]pyridine-7-carbonitrile], on Q46 protein aggregates, the IC50 is 100 to 500 nM.

In turn, `COc1ccc2oc(-c3nc4cc(C#N)ccn4c3N)cc2c1` [3-amino-2-(5-methoxy-1-benzofuran-2-yl)imidazo[1,2-a]pyridine-7-carbonitrile] came in with an IC50 on Q46 protein aggregates of under 100 nM.

Take `N#Cc1ccn2c(N)c(-c3cc4cc(OCCF)ccc4o3)nc2c1` [3-amino-2-[5-(2-fluoroethoxy)-1-benzofuran-2-yl]imidazo[1,2-a]pyridine-7-carbonitrile]: the IC50 on Q46 protein aggregates is under 100 nM.

The compound `COc1ccc2oc(-c3nc4cc(C#N)ccn4c3NCCN(C)C)cc2c1` [3-{[2-(dimethylamino)ethyl]amino}-2-(5-methoxy-1-benzofuran-2-yl)imidazo[1,2-a]pyridine-7-carbonitrile] gave an IC50 at Q46 protein aggregates of 100 to 500 nM.

Regarding `CNc1c(-c2cc3cc(OC)ccc3o2)nc2ccc(F)cn12` [6-fluoro-2-(5-methoxy-1-benzofuran-2-yl)-N-methylimidazo[1,2-a]pyridin-3-amine], the IC50 on Q46 protein aggregates was under 100 nM.

Compound `CNc1c(-c2cc3cc(OC)ccc3o2)nc2cc(CN)ccn12` [7-(aminomethyl)-2-(5-methoxy-1-benzofuran-2-yl)-N-methylimidazo[1,2-a]pyridin-3-amine] returned an IC50 at Q46 protein aggregates of 100 to 500 nM.

As to `CNc1c(-c2cc3cc(OC)ccc3o2)nc2cc(Br)ccn12` [7-bromo-2-(5-methoxy-1-benzofuran-2-yl)-N-methylimidazo[1,2-a]pyridin-3-amine], the IC50 at Q46 protein aggregates was under 100 nM.

As for `CNc1c(-c2cc3cc(OC)ccc3o2)nc2cc(Cl)ccn12` [7-chloro-2-(5-methoxy-1-benzofuran-2-yl)-N-methylimidazo[1,2-a]pyridin-3-amine], the IC50 at Q46 protein aggregates is under 100 nM.

`C#Cc1ccn2c(NC)c(-c3cc4cc(OC)ccc4o3)nc2c1` [7-ethynyl-2-(5-methoxy-1-benzofuran-2-yl)-N-methylimidazo[1,2-a]pyridin-3-amine] gave an IC50 on Q46 protein aggregates of under 100 nM.

At Q46 protein aggregates, `CNc1c(-c2cc3cc(OC)ccc3o2)nc2cc(F)ccn12` [7-fluoro-2-(5-methoxy-1-benzofuran-2-yl)-N-methylimidazo[1,2-a]pyridin-3-amine] had an IC50 of under 100 nM.

As to `CNc1c(-c2cc3cc(OC)ccc3o2)nc2cc(OC)ccn12` [7-methoxy-2-(5-methoxy-1-benzofuran-2-yl)-N-methylimidazo[1,2-a]pyridin-3-amine], the IC50 on Q46 protein aggregates is under 100 nM.

For the compound `CN(C)c1ccc(/C=C/c2nc3ccc(I)cc3[nH]2)cc1` [SBIM-3, 4-[(E)-2-(6-iodo-1H-benzimidazol-2-yl)ethenyl]-N,N-dimethylaniline], the “ratio of Kd values (tau aggregates vs Aβ1-42 aggregates)” value in test [1] is 2.73. Besides, the “binding to NFT in sections of AD brain tissue” value in test [2] is “bound NFT”.

For `CNc1c(-c2cc3c(o2)CCN(C(=O)OC(C)(C)C)C3)nc2cc(C#N)ccn12` [tert-butyl 2-[7-cyano-3-(methylamino)imidazo[1,2-a]pyridin-2-yl]-4H,5H,6H,7H-furo[3,2-c]pyridine-5-carboxylate], the IC50 on Q46 protein aggregates was in the range of 100 to 500 nM.
